Results taken from patent US20100298141A1, “SUBSTITUTED PYRIDINE N-OXIDE HERBICIDES” (E. I. DU PONT DE NEMOURS AND COMPANY, priority 2007, published 2010).

Experiments:
[1] = test system: crabgrass; assay: Test A pre-/postemergence greenhouse test; assay type: in vivo, Digitaria sanguinalis; conditions: for Plant response rating, Crabgrass, Large: 0 to 100 scale where 0 is no effect and 100 is complete control; for Crabgrass, Large plant response rating: 0 to 100 scale
How it was run: (§1)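 Planting was into mixed loam soil and sand; preemergence treatment followed as a directed soil spray. Concurrently, emerged plants (one- to two-leaf, 2–10 cm) received postemergence applications of identically formulated compound (non-phytotoxic solvent, surfactant). After approximately ten days under greenhouse conditions, injury was judged by eye against untreated plants.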

[2] = test system: giant foxtail; assay: Test A pre-/postemergence greenhouse test; assay type: in vivo, Setaria faberi; conditions: for Plant response rating, Foxtail, Giant: 0 to 100 scale where 0 is no effect and 100 is complete control; for Foxtail, Giant plant response rating: 0 to 100 scale
How it was run: as §1

[3] = test system: morningglory; assay: Test A pre-/postemergence greenhouse test; assay type: in vivo, Ipomoea spp.; conditions: for Plant response rating, Morningglory: 0 to 100 scale where 0 is no effect and 100 is complete control; for Morningglory plant response rating: 0 to 100 scale
How it was run: as §1

[4] = test system: wheat; assay: Test A pre-/postemergence greenhouse test; assay type: in vivo, Triticum aestivum; conditions: for Plant response rating, Wheat: 0 to 100 scale where 0 is no effect and 100 is complete control; for Wheat plant response rating: 0 to 100 scale
How it was run: as §1

[5] = test system: downy brome; assay: Test C pre-/postemergence test; assay type: in vivo, Bromus tectorum
How it was run: (§2)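 Compounds in a non-phytotoxic solvent with surfactant applied preemergence to seeded pots and, at the same time, postemergence to plants 2–18 cm tall (1- to 4-leaf stage). Paddy tests: pots flooded to 3 cm, compound applied into the water, depth held throughout.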

[6] = test system: cocklebur; assay: Test C pre-/postemergence test; assay type: in vivo, Xanthium strumarium
How it was run: as §2

[7] = test system: corn; assay: Test C pre-/postemergence test; assay type: in vivo, Zea mays
How it was run: as §2

[8] = test system: woolly cupgrass; assay: Test C pre-/postemergence test; assay type: in vivo, Eriochloa villosa
How it was run: as §2

[9] = test system: giant foxtail; assay: Test C pre-/postemergence test; assay type: in vivo, Setaria faberii
How it was run: as §2

[10] = test system: Goosegrass; assay: Test C pre-/postemergence test; assay type: in vivo, Eleusin indica
How it was run: as §2

[11] = test system: johnsongrass; assay: Test C pre-/postemergence test; assay type: in vivo, Sorghum halepense
How it was run: as §2

[12] = test system: lambsquarters; assay: Test C pre-/postemergence test; assay type: in vivo, Chenopodium album
How it was run: as §2

[13] = test system: morningglory; assay: Test C pre-/postemergence test; assay type: in vivo, Ipomoea coccinea
How it was run: as §2

[14] = test system: yellow nutsedge; assay: Test C pre-/postemergence test; assay type: in vivo, Cyperus esculentus
How it was run: as §2

[15] = test system: common ragweed; assay: Test C pre-/postemergence test; assay type: in vivo, Ambrosia elation
How it was run: as §2

[16] = test system: soybean; assay: Test C pre-/postemergence test; assay type: in vivo, Glycine max; conditions: for Soybean plant response rating: preemergence, scale 0 (no effect) to 100 (complete control)
How it was run: as §2

[17] = test system: umbrella sedge; assay: Test C flooded paddy test; assay type: in vivo, Cyperus difformis; conditions: Flood, 250 g ai/ha; scale 0 to 100, 0 no effect, 100 complete control; 13 to 15 days
How it was run: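 Test compounds are applied straight into paddy water held 3 cm above the soil surface, with that flood maintained for the whole test. After 13 to 15 days in the greenhouse, each species is scored visually relative to controls.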

[18] = Postemergence, 500 g ai/ha, 0 is no effect, 100 is complete control
[19] = Preemergence, 125 g ai/ha, 0 no effect, 100 complete control
[20] = 62 g ai/ha, Preemergence, scale 0 to 100
[21] = 125 g ai/ha, preemergence, scale 0 (no effect) to 100 (complete control)
[22] = Postemergence, 62 g ai/ha, scale 0 to 100, 0 no effect, 100 complete control
[23] = Postemergence, 125 g ai/ha, scale 0 to 100, 0 no effect, 100 complete control
[24] = Postemergence, 250 g ai/ha, scale 0 to 100, 0 no effect, 100 complete control
[25] = Preemergence, 31 g ai/ha, scale 0 to 100 (0 no effect, 100 complete control)
[26] = preemergence, 250 g ai/ha, scale 0 (no effect) to 100 (complete control)

[O-][n+]1cc(Cl)ccc1[S+]([O-])Cc1c(C(F)(F)F)nn(CC(F)(F)F)c1Cl (stereo not shown) [Compound 47]
Plant response rating, Crabgrass, Large ([1]; Postemergence, 125 g ai/ha): 80 | Crabgrass, Large plant response rating [1, 18]: 90 | Crabgrass, Large plant response rating [1, 19]: 80 | Plant response rating, Crabgrass, Large ([1]; Preemergence, 500 g ai/ha): 100 | Plant response rating, Foxtail, Giant ([2]; Postemergence, 125 g ai/ha): 80 | Foxtail, Giant plant response rating [2, 18]: 90 | Foxtail, Giant plant response rating [2, 19]: 100 | Plant response rating, Foxtail, Giant ([2]; Preemergence, 500 g ai/ha): 100 | Plant response rating, Morningglory ([3]; Postemergence, 125 g ai/ha): 60 | Morningglory plant response rating [3, 18]: 90 | Morningglory plant response rating [3, 19]: 60 | Plant response rating, Morningglory ([3]; Preemergence, 500 g ai/ha): 80 | Plant response rating, Wheat ([4]; Postemergence, 125 g ai/ha): 50 | Wheat plant response rating [4, 18]: 60 | Wheat plant response rating [4, 19]: 60 | Plant response rating, Wheat ([4]; Preemergence, 500 g ai/ha): 90 | Bromegrass, Downy plant response rating [5, 20]: 0 | Bromegrass, Downy plant response rating [5, 21]: 10 | Plant response rating (0 to 100), Bromegrass, Downy ([5]; Postemergence, 31 g ai/ha): 0 | Plant response rating, Bromegrass, Downy [5, 22]: 0 | Plant response rating, Bromegrass, Downy [5, 23]: 0 | Plant response rating, Bromegrass, Downy [5, 24]: 10 | Plant response rating, Bromegrass, Downy [5, 25]: 0 | Bromegrass, Downy plant response rating [5, 26]: 50 | Cocklebur plant response rating [6, 20]: 0 | Cocklebur plant response rating [6, 21]: 0 | Plant response rating (0 to 100), Cocklebur ([6]; Postemergence, 31 g ai/ha): 0 | Plant response rating, Cocklebur [6, 22]: 0 | Plant response rating, Cocklebur [6, 23]: 0 | Plant response rating, Cocklebur [6, 24]: 0 | Plant response rating, Cocklebur [6, 25]: 0 | Cocklebur plant response rating [6, 26]: 0 | Corn plant response rating [7, 20]: 50 | Corn plant response rating [7, 21]: 98 | Plant response rating (0 to 100), Corn ([7]; Postemergence, 31 g ai/ha): 0 | Plant response rating, Corn [7, 22]: 0 | Plant response rating, Corn [7, 23]: 0 | Plant response rating, Corn [7, 24]: 60 | Plant response rating, Corn [7, 25]: 45 | Corn plant response rating [7, 26]: 98 | Cupgrass, Woolly plant response rating [8, 20]: 100 | Cupgrass, Woolly plant response rating [8, 21]: 100 | Plant response rating (0 to 100), Cupgrass, Woolly ([8]; Postemergence, 31 g ai/ha): 0 | Plant response rating, Cupgrass, Woolly [8, 22]: 0 | Plant response rating, Cupgrass, Woolly [8, 23]: 0 | Plant response rating, Cupgrass, Woolly [8, 24]: 50 | Plant response rating, Cupgrass, Woolly [8, 25]: 90 | Cupgrass, Woolly plant response rating [8, 26]: 100 | Foxtail, Giant plant response rating [9, 20]: 100 | Foxtail, Giant plant response rating [9, 21]: 100 | Plant response rating (0 to 100), Foxtail, Giant ([9]; Postemergence, 31 g ai/ha): 0 | Plant response rating, Foxtail, Giant [9, 22]: 0 | Plant response rating, Foxtail, Giant [9, 23]: 0 | Plant response rating, Foxtail, Giant [9, 24]: 50 | Plant response rating, Foxtail, Giant [9, 25]: 85 | Foxtail, Giant plant response rating [9, 26]: 100 | Goosegrass plant response rating [10, 20]: 100 | Goosegrass plant response rating [10, 21]: 100 | Plant response rating (0 to 100), Goosegrass ([10]; Postemergence, 31 g ai/ha): 0 | Plant response rating, Goosegrass [10, 22]: 0 | Plant response rating, Goosegrass [10, 23]: 0 | Plant response rating, Goosegrass [10, 24]: 60 | Plant response rating, Goosegrass [10, 25]: 98 | Goosegrass plant response rating [10, 26]: 100 | Johnsongrass plant response rating [11, 20]: 90 | Johnsongrass plant response rating [11, 21]: 100 | Plant response rating (0 to 100), Johnsongrass ([11]; Postemergence, 31 g ai/ha): 0 | Plant response rating, Johnsongrass [11, 22]: 0 | Plant response rating, Johnsongrass [11, 23]: 0 | Plant response rating, Johnsongrass [11, 24]: 85 | Plant response rating, Johnsongrass [11, 25]: 85 | Johnsongrass plant response rating [11, 26]: 100 | Lambsquarters plant response rating [12, 20]: 100 | Lambsquarters plant response rating [12, 21]: 100 | Plant response rating (0 to 100), Lambsquarters ([12]; Postemergence, 31 g ai/ha): 0 | Plant response rating, Lambsquarters [12, 22]: 0 | Plant response rating, Lambsquarters [12, 23]: 0 | Plant response rating, Lambsquarters [12, 24]: 50 | Plant response rating, Lambsquarters [12, 25]: 100 | Lambsquarters plant response rating [12, 26]: 100 | Morningglory plant response rating [13, 20]: 100 | Morningglory plant response rating [13, 21]: 100 | Plant response rating (0 to 100), Morningglory ([13]; Postemergence, 31 g ai/ha): 0 | Plant response rating, Morningglory [13, 22]: 0 | Plant response rating, Morningglory [13, 23]: 0 | Plant response rating, Morningglory [13, 24]: 60 | Plant response rating, Morningglory [13, 25]: 100 | Morningglory plant response rating [13, 26]: 100 | Nutsedge, Yellow plant response rating [14, 20]: 30 | Nutsedge, Yellow plant response rating [14, 21]: 40 | Plant response rating (0 to 100), Nutsedge, Yellow ([14]; Postemergence, 31 g ai/ha): 0 | Plant response rating, Nutsedge, Yellow [14, 22]: 0 | Plant response rating, Nutsedge, Yellow [14, 23]: 0 | Plant response rating, Nutsedge, Yellow [14, 24]: 60 | Plant response rating, Nutsedge, Yellow [14, 25]: 0 | Nutsedge, Yellow plant response rating [14, 26]: 100 | Ragweed plant response rating [15, 20]: 5 | Ragweed plant response rating [15, 21]: 5 | Plant response rating (0 to 100), Ragweed ([15]; Postemergence, 31 g ai/ha): 0 | Plant response rating (0 to 100), Ragweed ([15]; Postemergence, 62 g ai/ha): 0 | Plant response rating, Ragweed [15, 23]: 0 | Plant response rating, Ragweed [15, 24]: 0 | Plant response rating, Ragweed [15, 25]: 0 | Ragweed plant response rating [15, 26]: 50 | Soybean plant response rating ([16]; 125 g ai/ha): 60 | Plant response rating (0 to 100), Soybean ([16]; Postemergence, 31 g ai/ha): 5 | Plant response rating (0 to 100), Soybean ([16]; Postemergence, 62 g ai/ha): 15 | Plant response rating, Soybean [16, 23]: 20 | Plant response rating, Soybean [16, 24]: 50 | Plant response rating, Soybean [16, 25]: 0 | Soybean plant response rating ([16]; 250 g ai/ha): 80 | Plant response rating, Sedge, Umbrella [17]: 100
